Data from doi:10.1101/2025.01.28.635346v1 (bioRxiv, 2025).
Where two headings read alike, the source gives them in different places. Values belong to the compound of their own block, whether it stands above or below them. Bridge positions count the residues as written; N and C are the ends. Side chains are listed from the residue outwards. Peptide text beside a SMILES is read from it. * marks the point of attachment. Butanoyl(4-(4-I-phenyl)) = O=C(CCCc1ccc(I)cc1)*; PEG2 = NCCOCCOCCC(=O)O

Key:
integrin αvβ8 = integrin αvβ8 (Homo sapiens, UniProt P06756+P26012); assay: ELISA competition assay, integrin αvβ8 binding to LAP
integrin αvβ6 = integrin αvβ6 (Homo sapiens, UniProt P06756+P18564); assay: ELISA competition assay, integrin αvβ6 binding to LAP
[1] = Pharmacokinetics in female Balb/c mice; format: in vivo, mouse
[2] = αvβ6 IC50, ELISA competition vs LAP, mean, n ≥ 3
[3] = Table S3E, IP 10 mg/kg, mouse, animal 1F001
[4] = Table S3E, IP 10 mg/kg, mouse, animal 1F002
[5] = Table S3E, IP 10 mg/kg, mouse, animal 1F003
[6] = Table S3E, IP 10 mg/kg, mouse, animal 1F005
[7] = female, Balb/c, mouse, plasma, ip, 10 mg/kg

Structure (SMILES): CC[C@H](C)[C@H](NC(=O)[C@H](CC(C)C)NC(=O)[C@H](CC(=O)O)NC(=O)CNC(=O)[C@H](CCCNC(=N)N)NC(=O)[C@@H](NC(=O)[C@H](Cc1ccccc1)NC(=O)[C@H](Cc1ccc(O)cc1)NC(=O)[C@@H]1CCC(=O)NCC(=O)NCC(=O)N[C@@H](Cc2c[nH]cn2)C(=O)NCC(=O)N[C@@H](Cc2c[nH]cn2)C(=O)N[C@@H](C(C)C)C(=O)N2CCC[C@H]2C(=O)N1)C(C)C)C(=O)N[C@@H](CO)C(=O)N[C@@H](Cc1ccccc1)C(=O)N[C@@H](Cc1ccc(O)cc1)C(=O)NCC(=O)O [lassotide 31] (GGHGHVPEYFVRGDLISFYG-OH; lactam N-8; C-terminus assumed)
IC50 (integrin αvβ8): 27 nM | IC50 (integrin αvβ6; [2]): 21 nM

Structure (SMILES): CC[C@H](C)[C@H](NC(=O)[C@H](CC(C)C)NC(=O)[C@H](CC(=O)O)NC(=O)CNC(=O)[C@H](CCCNC(=N)N)NC(=O)[C@@H](NC(=O)[C@H](Cc1ccccc1)NC(=O)[C@H](Cc1ccc(O)cc1)NC(=O)[C@@H]1CCC(=O)NCC(=O)NCC(=O)N[C@@H](CC(C)C)C(=O)NCC(=O)N[C@@H](Cc2c[nH]cn2)C(=O)N[C@@H](C(C)C)C(=O)N2CCC[C@H]2C(=O)N1)C(C)C)C(=O)N[C@@H](CO)C(=O)N[C@@H](Cc1ccccc1)C(=O)N[C@@H](Cc1ccc(O)cc1)C(=O)NCC(=O)O [lassotide 32] (GGLGHVPEYFVRGDLISFYG-OH; lactam N-8; C-terminus assumed)
IC50 (integrin αvβ8): 32 nM | IC50 (integrin αvβ6; [2]): 53 nM

IC50 (integrin αvβ6): 1.4 nM
Structure (SMILES): CC[C@H](C)[C@@H]1NC(=O)[C@H](CO)NC(=O)CNC(=O)[C@H](CCCNC(=N)N)NC(=O)CNC(=O)CNC(=O)CC[C@@H](C(=O)N[C@@H](Cc2ccc(O)cc2)C(=O)N[C@@H](Cc2ccccc2)C(=O)N[C@@H](CCC(N)=O)C(=O)N[C@@H](CCCNC(=N)N)C(=O)NCC(=O)N[C@@H](CC(=O)O)C(=O)N[C@@H](CC(C)C)C(=O)N[C@@H](CCC(N)=O)C(=O)N[C@@H](CO)C(=O)N[C@@H](Cc2ccccc2)C(=O)N[C@@H](Cc2ccc(O)cc2)C(=O)NCC(=O)O)NC(=O)[C@@H]2CCCN2C1=O [lassotide 44] (GGRGSIPEYFQRGDLQSFYG-OH; lactam N-8; C-terminus assumed)

Structure (SMILES): CC[C@H](C)[C@H](NC(=O)[C@H](CC(C)C)NC(=O)[C@H](CC(=O)O)NC(=O)CNC(=O)[C@H](CCCNC(=N)N)NC(=O)[C@@H](NC(=O)[C@H](Cc1ccccc1)NC(=O)[C@H](Cc1ccc(O)cc1)NC(=O)[C@@H]1CCC(=O)NCC(=O)NCC(=O)N[C@@H](CCCCNC(=O)CCOCCOCCNC(=O)CCCc2ccc(I)cc2)C(=O)NCC(=O)N[C@@H](Cc2c[nH]cn2)C(=O)N[C@@H](C(C)C)C(=O)N2CCC[C@H]2C(=O)N1)C(C)C)C(=O)N[C@@H](CO)C(=O)N[C@@H](Cc1ccccc1)C(=O)N[C@@H](Cc1ccc(O)cc1)C(=O)N[C@@H](CCCCNC(=O)CCOCCOCCNC(=O)CCCc1ccc(I)cc1)C(=O)O [lassotide 52] (GGK([PEG2-Butanoyl(4-(4-I-phenyl))])GHVPEYFVRGDLISFYK([PEG2-Butanoyl(4-(4-I-phenyl))])-OH; lactam N-8)
further increase in half-life ([1]; 52 vs 47, 10 mg/kg IP, mice): 4.4 fold | Plasma Concentration ([1]; IP 10 mg/kg, 1.0 h, animal 1F001): 31600 ng/mL | Plasma Concentration ([1]; IP 10 mg/kg, 1.0 h, animal 1F002): 21000 ng/mL | Plasma Concentration ([1]; IP 10 mg/kg, 1.0 h, animal 1F003): 36300 ng/mL | Plasma Concentration ([1]; IP 10 mg/kg, 1.0 h, animal 1F005): 34200 ng/mL | Plasma Concentration ([1]; IP 10 mg/kg, 2.0 h, animal 1F001): 50800 ng/mL | Plasma Concentration ([1]; IP 10 mg/kg, 2.0 h, animal 1F002): 35000 ng/mL | Plasma Concentration ([1]; IP 10 mg/kg, 2.0 h, animal 1F003): 53100 ng/mL | Plasma Concentration ([1]; IP 10 mg/kg, 2.0 h, animal 1F005): 40000 ng/mL | Plasma Concentration ([1]; IP 10 mg/kg, 4.0 h, animal 1F001): 54500 ng/mL | Plasma Concentration ([1]; IP 10 mg/kg, 4.0 h, animal 1F002): 51100 ng/mL | Plasma Concentration ([1]; IP 10 mg/kg, 4.0 h, animal 1F003): 59300 ng/mL | Plasma Concentration ([1]; IP 10 mg/kg, 4.0 h, animal 1F005): 43400 ng/mL | Plasma Concentration ([1]; IP 10 mg/kg, 8.0 h, animal 1F001): 45300 ng/mL | Plasma Concentration ([1]; IP 10 mg/kg, 8.0 h, animal 1F002): 43800 ng/mL | Plasma Concentration ([1]; IP 10 mg/kg, 8.0 h, animal 1F003): 51000 ng/mL | Plasma Concentration ([1]; IP 10 mg/kg, 8.0 h, animal 1F005): 35200 ng/mL | Plasma Concentration ([1]; IP 10 mg/kg, 12 h, animal 1F001): 37900 ng/mL | Plasma Concentration ([1]; IP 10 mg/kg, 12 h, animal 1F002): 43800 ng/mL | Plasma Concentration ([1]; IP 10 mg/kg, 12 h, animal 1F003): 43800 ng/mL | Plasma Concentration ([1]; IP 10 mg/kg, 12 h, animal 1F005): 30500 ng/mL | Plasma Concentration ([1]; IP 10 mg/kg, 24 h, animal 1F001): 22500 ng/mL | Plasma Concentration ([1]; IP 10 mg/kg, 24 h, animal 1F002): 24300 ng/mL | Plasma Concentration ([1]; IP 10 mg/kg, 24 h, animal 1F003): 34800 ng/mL | Plasma Concentration ([1]; IP 10 mg/kg, 24 h, animal 1F005): 19900 ng/mL | Plasma Concentration ([1]; IP 10 mg/kg, 36 h, animal 1F001): 16100 ng/mL | Plasma Concentration ([1]; IP 10 mg/kg, 36 h, animal 1F002): 17400 ng/mL | Plasma Concentration ([1]; IP 10 mg/kg, 36 h, animal 1F003): 22000 ng/mL | Plasma Concentration ([1]; IP 10 mg/kg, 36 h, animal 1F005): 13400 ng/mL | Plasma Concentration ([1]; IP 10 mg/kg, 48 h, animal 1F001): 11200 ng/mL | Plasma Concentration ([1]; IP 10 mg/kg, 48 h, animal 1F002): 12400 ng/mL | Plasma Concentration ([1]; IP 10 mg/kg, 48 h, animal 1F003): 13200 ng/mL | Plasma Concentration ([1]; IP 10 mg/kg, 48 h, animal 1F005): 7330 ng/mL | AUClast [1, 3]: 1290 µg·h/mL | CL/F [1, 3]: 0.104 mL/min/kg | Cmax [1, 3]: 54.5 µg/mL | Tmax [1, 3]: 4.0 h | Vz/F [1, 3]: 179 mL/kg | t1/2 [1, 3]: 20 h | AUClast [1, 4]: 1330 µg·h/mL | CL/F [1, 4]: 0.0981 mL/min/kg | Cmax [1, 4]: 51.1 µg/mL | Tmax [1, 4]: 4.0 h | Vz/F [1, 4]: 176 mL/kg | t1/2 [1, 4]: 21 h | AUClast [1, 5]: 1610 µg·h/mL | CL/F [1, 5]: 0.0829 mL/min/kg | Cmax [1, 5]: 59.3 µg/mL | Tmax [1, 5]: 4.0 h | Vz/F [1, 5]: 151 mL/kg | t1/2 [1, 5]: 21 h | AUClast [1, 6]: 1050 µg·h/mL | CL/F [1, 6]: 0.134 mL/min/kg | Cmax [1, 6]: 43.4 µg/mL | Tmax [1, 6]: 4.0 h | Vz/F [1, 6]: 210 mL/kg | t1/2 [1, 6]: 18 h | Tmax ([1]; Table S3E: IP 10 mg/kg, female Balb/c mice, Mean N=4): 4.00 h | AUC(0-t) [1, 7]: 1320 µg·h/mL | CL/F [1, 7]: 0.105 mL/min/kg | Cmax [1, 7]: 52.1 µg/mL | Tmax [1, 7]: 4 h | Vd/F [1, 7]: 0.179 L/kg | half-life [1, 7]: 1200 min | level at 1 h [1, 7]: 30800 ng/mL | level at 2 h [1, 7]: 44700 ng/mL | level at 4 h [1, 7]: 52.1 µg/mL | level at 8 h [1, 7]: 43800 ng/mL | level at 12 h [1, 7]: 39000 ng/mL | level at 24 h [1, 7]: 25400 ng/mL | level at 36 h [1, 7]: 17200 ng/mL | level at 48 h [1, 7]: 11000 ng/mL
